Results taken from patent US4434171A, “Dibenzazepine derivatives, pharmaceutical compositions containing them, and pharmaceutical methods using them” (Sandoz Ltd., priority 1980, dated 1984).
pIC50: −log10 of the molar value.

Assays:
[1] = target: T1, 3H-Spiperone receptors (Bos taurus, UniProt P20288); assay: binding to 3H-Spiperone receptors, modified test from J. Leysen et al.; details: calf brain striatal tissue; 0.1 nM 3H-Spiperone; 5×10^-7 M Cinanserin; pH 7.7; 40 min at room temperature; read-out: IC50 in the neuroleptic test from J. Leysen (inhibition of specific Spiperone binding)
T1 construct: Fresh calf brain striatal tissue is homogenized; from tissue; host or cells: calf brain striatum membranes
Procedure: Fresh calf brain striatal tissue is homogenized in a 25 fold volume of Tris buffer (50 mM, pH 7.7, 120 mM sodium chloride) and centrifuged. The pellets are resuspended in a 22 fold volume of the Tris buffer, incubated for 15 min. at 37° C., recentrifuged and the pellets resuspended in a 300 fold volume of the Tris buffer. […] After incubation for 40 min. at room temperature, the assay mixtures are rapidly filtered through Whatman GF/B filters and washed twice with 5 ml of ice cold Tris buffer and then scintillation-counted.

[2] = system: spontaneous motor activity in male mice; assay: inhibition of spontaneous motor activity in male mice (Caviezel and Baillod); format: in vivo, mouse; details: p.o.
Procedure: In particular, the compounds of the invention are useful as neuroleptic agents in the treatment of e.g. psychotic disturbances such as schizophrenia, as indicated in standard tests, e.g. by an inhibition of spontaneous motor activity in male mice on p.o. administration of from about 1 to about 50 mg/kg animal body weight of the compounds e.g. in accordance with the principles of Caviezel and Baillod (Pharm. Acta Helv. (1958), 33, 465-484).

T1 sequence (P20288 whole entry): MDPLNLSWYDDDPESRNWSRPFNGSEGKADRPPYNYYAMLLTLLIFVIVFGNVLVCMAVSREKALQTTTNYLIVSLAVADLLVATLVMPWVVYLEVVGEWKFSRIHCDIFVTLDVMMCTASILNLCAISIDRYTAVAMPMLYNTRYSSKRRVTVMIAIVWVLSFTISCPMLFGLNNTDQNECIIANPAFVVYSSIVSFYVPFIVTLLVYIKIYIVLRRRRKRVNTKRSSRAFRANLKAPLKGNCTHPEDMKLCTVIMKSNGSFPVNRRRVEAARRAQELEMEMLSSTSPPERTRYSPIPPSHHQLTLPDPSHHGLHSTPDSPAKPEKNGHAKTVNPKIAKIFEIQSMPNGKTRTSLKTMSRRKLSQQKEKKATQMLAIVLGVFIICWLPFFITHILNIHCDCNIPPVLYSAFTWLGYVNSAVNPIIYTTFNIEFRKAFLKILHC

pIC50 [1]: 7.00
SMILES: CN1CCC(N2Cc3cc(Cl)ccc3Cc3ccccc32)CC1 [Example 1, 8-Chloro-5,6-dihydro-5-(1-methyl-4-piperidinyl)-11H-dibenz[b,e]azepine]
activity in inhibiting spontaneous motor activity, compared with Clozapine [2]: comparable to that of Clozapine
